Tested on: ERP44
Test: ER chaperone secretion assay, ERP44
Assay type: cell-based, human
Excerpt: Figure 1. ER retrieval signal abundance and affinity are not correlated. (a) Sequence logos for ER resident proteins with C-terminal KDEL retrieval signals and variants thereof calculated using frequency or protein abundance ([Itzhak et al., 2017]; [Itzhak et al., 2016]). (b) Combined cellular concentrations of ER resident proteins with canonical KDEL, RDEL, and HDEL retrieval sequences in HeLa cells and mouse brain. (c) Competition binding assays for [^3H]-TAEHDEL and unlabelled TAEKDEL, TAERDEL, and TAEHDEL to the KDEL receptor. IC50 values for the competing peptides were used to calculate the apparent KDwith the Cheng-Prusoff equation ([Cheng and Prusoff, 1973]). (d) Endogenous KDEL receptor redistribution was measured in COS-7 cells in the absence (-ligand) or presence of K/R/H/A/DDEL (mScarlet-xDEL^sec). TGN46 was used as a Golgi marker. Scale bar is 10 µm. (e) The mean difference for K/R/H/A/DDEL comparisons against the shared no ligand control are shown as Cummings estimation plots. The individual data points for the fraction of KDEL receptor fluorescence in the Golgi are plotted on the upper axes with sample sizes and p values. Figure 1—source data 1. Source data for the ligand-induced KDELR receptor retrieval assays in Figure 1e. Figure 1—figure supplement 1. Abundance of ER resident proteins and chaperones in human cells and mouse brain. (a) The mean concentration of ER resident chaperones with the indicated ER retrieval sequence variant is plotted in the bar graph ([Itzhak et al., 2017]; [Itzhak et al., 2016]). […] Endogenous ER chaperone secretion was measured by western blotting after challenge with different retrieval signals, and plotted as a bar graph showing mean ± SEM (n = 3). […] (a) Distribution of human KDELR1 and (b) KDELR2 was measured in COS-7 cells in the absence (-ligand) or presence of K/R/H/A/DDEL retrieval signals (K/R/H/A/DDEL^sec). […] The fraction of KDEL receptor localised to the Golgi was measured before (no ligand) and after challenge with different retrieval signals as indicated. […]

ADEL [pcDNA3.1 hGHss-mScarlet-H. sapiens BiP639-654K651A (ADEL^SEC), secreted mScarlet fusion with human BiP C-terminus, ADEL signal]
ERP44 secretion after challenge with retrieval signal (mean, HeLa S3, 24 hr, Western blot densitometry): 11.8
ERP44 secretion after challenge with retrieval signal (replicate 1): 8.7
ERP44 secretion after challenge with retrieval signal (replicate 2): 14.9

— PMC8248988, “A signal capture and proofreading mechanism for the KDEL-receptor explains selectivity and dynamic range in ER retrieval” (eLife, 2021)
